Among the data in PubChem BioAssay AID248 (DTP/NCI, 2004) are T/C values, retold here.

Molecules are shown by their SMILES. Where “and” joins values, the source holds several entries; their conditions need not be identical. Equal values may be shown once. Toxic doses and inconclusive results are not listed.

The assay concerns L1210 leukemia ip in BDF1 mice, survival T/C. Kind of assay: NCI In Vivo Anticancer Drug Screen. Data for tumor model L1210 Leukemia (intraperitoneal) in B6D2F1 (BDF1) mice. The conditions noted are these: endpoint: mean survival time, higher = longer survival. In a few lines: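 In this screen, tumor-bearing mice given compound are compared to those given vehicle, and their survival values are reported as a treated-to-control quotient.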

The mark [1] stands for this setting: dose: 25.0 mg/kg/injection, schedule: Q01DX009 (ip), vehicle: Klucel (hydroxypropylcellulose) (HPC).
Setting [2] is: dose: 100.0 mg/kg/injection, schedule: Q04DX002 (ip), vehicle: Klucel (hydroxypropylcellulose) (HPC).
[3] abbreviates: dose: 100.0 mg/kg/injection, schedule: Q01DX009 (ip), vehicle: saline with Tween-80.
[4] abbreviates: dose: 200.0 mg/kg/injection, schedule: Q01DX009 (ip), vehicle: saline with Tween-80.
[5] abbreviates: dose: 100.0 mg/kg/injection, schedule: Q01DX001 (ip), vehicle: carboxymethylcellulose (CMC).
Where [6] appears, read: dose: 200.0 mg/kg/injection, schedule: Q01DX001 (ip), vehicle: carboxymethylcellulose (CMC).
The mark [7] stands for this setting: dose: 400.0 mg/kg/injection, schedule: Q01DX001 (ip), vehicle: carboxymethylcellulose (CMC).
Where [8] appears, read: dose: 100.0 mg/kg/injection, schedule: Q01DX001 (ip), vehicle: saline.
Setting [9] is: dose: 200.0 mg/kg/injection, schedule: Q01DX001 (ip), vehicle: saline.
The mark [10] stands for this setting: dose: 400.0 mg/kg/injection, schedule: Q01DX001 (ip), vehicle: saline.
Setting [11] is: dose: 12.5 mg/kg/injection, schedule: Q04DX002 (ip), vehicle: Klucel (hydroxypropylcellulose) (HPC).
The mark [12] stands for this setting: dose: 25.0 mg/kg/injection, schedule: Q04DX002 (ip), vehicle: Klucel (hydroxypropylcellulose) (HPC).
Setting [13] is: dose: 100.0 mg/kg/injection, schedule: Q04DX003 (ip), vehicle: saline.
The mark [14] stands for this setting: dose: 200.0 mg/kg/injection, schedule: Q04DX003 (ip), vehicle: saline.
The mark [15] stands for this setting: dose: 400.0 mg/kg/injection, schedule: Q04DX003 (ip), vehicle: saline.

Take `COC(=O)c1ccccc1NC(=O)c1ccccc1C(=O)O`: the T/C reads like this: under setting [1], 100 % of control; (dose: 50.0 mg/kg/injection, schedule: Q01DX009 (ip), vehicle: Klucel (hydroxypropylcellulose) (HPC)) 103 % of control; (dose: 100.0 mg/kg/injection, schedule: Q01DX009 (ip), vehicle: Klucel (hydroxypropylcellulose) (HPC)) 93 % of control and 102 % of control; under setting [2], 98 % of control; (dose: 150.0 mg/kg/injection, schedule: Q01DX009 (ip), vehicle: Klucel (hydroxypropylcellulose) (HPC)) 100 % of control; (dose: 225.0 mg/kg/injection, schedule: Q01DX009 (ip), vehicle: Klucel (hydroxypropylcellulose) (HPC)) 97 % of control. For the same compound, for the setting “dose: 335.0 mg/kg/injection, schedule: Q01DX009 (ip), vehicle: Klucel (hydroxypropylcellulose) (HPC)”, the T/C was 102 % of control.

Consider `O=C(O)c1cccc([N+](=O)[O-])c1C(=O)O`, for which the T/C is 95 % of control under setting [3]; 98 % of control under setting [2]; 95 % of control under setting [4]; 88 % of control (dose: 200.0 mg/kg/injection, schedule: Q04DX002 (ip), vehicle: Klucel (hydroxypropylcellulose) (HPC)); 88 % of control (dose: 400.0 mg/kg/injection, schedule: Q04DX002 (ip), vehicle: Klucel (hydroxypropylcellulose) (HPC)).

`c1ccc(-c2cccc(-c3ccccc3)c2)cc1`: the T/C by setting is: (dose: 100.0 mg/kg/injection, schedule: Q04DX003 (ip), vehicle: Klucel (hydroxypropylcellulose) (HPC)) 93 % of control; (dose: 200.0 mg/kg/injection, schedule: Q04DX003 (ip), vehicle: Klucel (hydroxypropylcellulose) (HPC)) 108 % of control; (dose: 400.0 mg/kg/injection, schedule: Q04DX003 (ip), vehicle: Klucel (hydroxypropylcellulose) (HPC)) 90 % of control.

As to `CCCCCC/C=C/C1CC(=O)OC1=O` (stereo not given), the T/C reads like this: (dose: 25.0 mg/kg/injection, schedule: Q01DX009 (ip), vehicle: saline with Tween-80) 100 % of control; (dose: 50.0 mg/kg/injection, schedule: Q01DX009 (ip), vehicle: saline with Tween-80) 88 % of control; (dose: 50.0 mg/kg/injection, schedule: Q04DX003 (ip), vehicle: saline with Tween-80) 98 % of control; under setting [3], 100 % of control; (dose: 100.0 mg/kg/injection, schedule: Q04DX003 (ip), vehicle: saline with Tween-80) 101 % of control and 112 % of control; under setting [4], 97 % of control. For the same compound, the T/C was 95 % of control and 101 % of control (dose: 200.0 mg/kg/injection, schedule: Q04DX003 (ip), vehicle: saline with Tween-80); 103 % of control (dose: 400.0 mg/kg/injection, schedule: Q04DX003 (ip), vehicle: saline with Tween-80).

On to `C1CC(C2OCOC3COCOC32)OO1` (stereo not given), for which the T/C was 89 % of control (dose: 222.0 mg/kg/injection, schedule: Q01DX Z (ip), vehicle: methylcellulose (MC)); 104 % of control (dose: 333.0 mg/kg/injection, schedule: Q01DX Z (ip), vehicle: methylcellulose (MC)); 92 % of control (dose: 500.0 mg/kg/injection, schedule: Q01DX Z (ip), vehicle: methylcellulose (MC)).

Consider `O=C(O)c1c(O)cc(=O)oc1-c1ccc(Cl)cc1`, for which the T/C is 87 % of control under setting [5], 92 % of control under setting [6] and 100 % of control under setting [7].

In the case of `CC(C)OP(=O)(NO)OC(C)C`, the T/C by setting is: under setting [8], 97 % of control; under setting [9], 92 % of control; under setting [10], 90 % of control.

As to `O=C(Nc1cccc(NC(=O)Nc2cccc(C3=NCCN3)c2)c1)Nc1cccc(C2=NCCN2)c1`, the T/C reads like this: (dose: 16.4 mg/kg/injection, schedule: Q01DX Z (ip), vehicle: carboxymethylcellulose (CMC)) 121 % of control; (dose: 27.0 mg/kg/injection, schedule: Q01DX Z (ip), vehicle: carboxymethylcellulose (CMC)) 156 % of control; (dose: 37.0 mg/kg/injection, schedule: Q01DX Z (ip), vehicle: carboxymethylcellulose (CMC)) 121 % of control; (dose: 55.5 mg/kg/injection, schedule: Q01DX Z (ip), vehicle: carboxymethylcellulose (CMC)) 123 % of control; (dose: 66.0 mg/kg/injection, schedule: Q01DX Z (ip), vehicle: carboxymethylcellulose (CMC)) 107 % of control; (dose: 83.3 mg/kg/injection, schedule: Q01DX Z (ip), vehicle: carboxymethylcellulose (CMC)) 121 % of control. The T/C runs as follows: (dose: 90.0 mg/kg/injection, schedule: Q01DX Z (ip), vehicle: saline) 107 % of control; (dose: 125.0 mg/kg/injection, schedule: Q01DX Z (ip), vehicle: carboxymethylcellulose (CMC)) 101 % of control; (dose: 187.5 mg/kg/injection, schedule: Q01DX Z (ip), vehicle: carboxymethylcellulose (CMC)) 104 % of control.

Turning to `c1ccc2c(c1)nc1n2CCC1`, the T/C runs as follows: under setting [5], 96 % of control; under setting [6], 98 % of control; under setting [7], 102 % of control.

Turning to `CC(=O)[C@@]1(O)CC[C@H]2[C@@H]3C[C@H](C)C4=CC(=O)CC[C@]4(C)[C@H]3[C@@H](O)C[C@@]21C`, the T/C under setting [11] was 102 % of control; the T/C under setting [12] is 105 % of control; the T/C (dose: 50.0 mg/kg/injection, schedule: Q04DX002 (ip), vehicle: Klucel (hydroxypropylcellulose) (HPC)) is 112 % of control; the T/C under setting [8] is 104 % of control; the T/C (dose: 100.0 mg/kg/injection, schedule: Q01DX009 (ip), vehicle: acetone) is 97 % of control; the T/C under setting [13] was 104 % of control. The T/C by setting is: under setting [9], 100 % of control; (dose: 200.0 mg/kg/injection, schedule: Q01DX009 (ip), vehicle: acetone) 92 % of control; under setting [14], 102 % of control; under setting [10], 91 % of control; (dose: 400.0 mg/kg/injection, schedule: Q01DX009 (ip), vehicle: acetone) 97 % of control; under setting [15], 95 % of control.

Consider `NC(CSS(=O)(=O)O)=NC1CC2CCC1C2` (stereo not given), for which the T/C is 97 % of control (dose: 6.25 mg/kg/injection, schedule: Q01DX001 (ip), vehicle: saline); 98 % of control (dose: 6.25 mg/kg/injection, schedule: Q01DX009 (ip), vehicle: Klucel (hydroxypropylcellulose) (HPC)); 95 % of control and 103 % of control (dose: 6.25 mg/kg/injection, schedule: Q01DX009 (ip), vehicle: saline); 112 % of control and 117 % of control (dose: 6.25 mg/kg/injection, schedule: Q04DX002 (ip), vehicle: saline); 95 % of control (dose: 12.5 mg/kg/injection, schedule: Q01DX001 (ip), vehicle: saline); 95 % of control (dose: 12.5 mg/kg/injection, schedule: Q01DX009 (ip), vehicle: Klucel (hydroxypropylcellulose) (HPC)). The T/C (dose: 12.5 mg/kg/injection, schedule: Q01DX009 (ip), vehicle: saline) was 100 % of control and 91 % of control; the T/C under setting [11] was 100 % of control; the T/C (dose: 12.5 mg/kg/injection, schedule: Q04DX002 (ip), vehicle: saline) is 101 % of control and 87 % of control; the T/C (dose: 25.0 mg/kg/injection, schedule: Q01DX001 (ip), vehicle: saline with Tween-80) is 112 % of control; the T/C (dose: 25.0 mg/kg/injection, schedule: Q01DX001 (ip), vehicle: saline) is 92 % of control; the T/C under setting [1] was 104 % of control. Besides, the T/C by setting is: (dose: 25.0 mg/kg/injection, schedule: Q01DX009 (ip), vehicle: saline) 94 % of control and 88 % of control; under setting [12], 92 % of control; (dose: 50.0 mg/kg/injection, schedule: Q04DX002 (ip), vehicle: saline) 117 % of control.

For `CNP1(N(C)C)=NP(NC)(N(C)C)=NP(NC)(N(C)C)=N1` (stereo not given), the T/C (dose: 50.0 mg/kg/injection, schedule: Q01DX009 (ip), vehicle: saline) is 102 % of control; the T/C (dose: 100.0 mg/kg/injection, schedule: Q01DX009 (ip), vehicle: saline) is 100 % of control; the T/C (dose: 200.0 mg/kg/injection, schedule: Q01DX009 (ip), vehicle: saline) was 94 % of control.

As to `CCOC(=O)C1=C(C)CC(=O)NC1=O`, the T/C under setting [8] was 115 % of control; the T/C under setting [13] is 108 % of control; the T/C under setting [9] is 114 % of control; the T/C under setting [14] was 90 % of control; the T/C under setting [10] is 111 % of control; the T/C under setting [15] is 90 % of control.
